For assay [1], the system named is doxorubicin-induced apoptosis in retinal ganglion cells. The assay is described as follows: Doxorubicin-induced apoptosis in rat retinal ganglion cells (intravitreal doxorubicin, TUNEL staining, stereological disector). It is filed as in vivo. The source says:
(§1) Apoptosis is a significant component of cell death in optic and/or eye diseases including (i) all forms of primary and secondary glaucoma, preferably such as e.g. primary open-angle glaucoma, normal-tension glaucoma, primary angle-closure glaucoma, pseudoexfoliation syndrome and glaucoma, pigment dispersion syndrome and glaucoma, neovascular glaucoma, inflammatory glaucoma, lens-related glaucoma, traumatic glaucoma, primary congenital glaucoma, iatrogenic induced glaucoma, and malignant glaucoma (R. Agarwal, S. K. Gupta, P. Agarwal, R. Saxena & S. S. Agrawal (2009) Indian J. Ophthalmol. 57, 257-266); (ii) aquired macular disorders, preferably such as e.g. age-related macular degeneration, idiopathic choroidal neovascularisation, central serous chorioretinopathy, vitreomacular interface disorders, idiopathic macular telangiectasia, cystoid macular oedema, and microcystic macular oedema (J. L. Dunaief, T. Dentchev, G.-S. Ying & A. H. Milam (2002) Arch. Ophthalmol. 120, 1435-1442); (iii) optic neuropathy, preferably such as e.g. anterior or posterior ischemic optic neuropathy (B. J. Slater, Z. Mehrabian, Y. Guo, A. Hunter & S. L. Bernstein (2008) Invest. Ophthalmol. Vis. Sci. 49, 3671-3676); (iv) optic neuritis (K. S. Shindler, E. Ventura, M. Dutt & A. Rostami (2008) Exp.Eye Res. 87, 208-213); (v) uveitis, preferably such as e.g. anterior uveitis, intermediate uveitis, posterior uveitis, and panuveitis (C.-C. Chan, D. M. Matteson, Q. Li, S. M. Whitcup & R. B. Nussenblatt (1997) Arch. Ophthalmol. 115, 1559-1567); (vi) hereditary fundus dystrophies, preferably such as e.g. retinitis pigmentosa, cone dystrophy, cone-rod dystrophy, rod dystrophy, Stargardt's disease, Bietti's crystalline corneoretinal dystrophy, familial benign fleck retina, Best vitelliform macular dystrophy, adult-onset vitelliform macular dystrophy, North Carolina macular dystrophy, familial dominant drusen, and concentric annular macular dystrophy (H. Zhang, X. Li, X. Dai, J. Han, Y. Zhang, Y. Qi, Y. He, Y. Liu, B. Chang & J. J. Pang (2017) J. Ophthalmol. 2017, 1-13 9721362); (vii) retinal vascular diseases, preferably such as e.g. diabetic retinopathy, non-diabetic retinopathy, retinal venous occlusive disease, retinal arterial occlusive disease, ocular ischemic syndrome, hypertensive eye disease, sickle cell retinopathy, thalassemia retinopathy, retinopathy of prematurity, retinal artery macroaneurysm, primary retinal telangiectasia, Eales disease, and radiation retinopathy (G. Donati, A. Kapetanios, M. Dubois-Dauphin & C. J. Pournaras (2008) Acta Ophthalmol. 86, 302-306); (viii) scleritis or episcleritis (C. Heinz, N. Bograd, J. Koch & A. Heiligenhaus (2013) Graefes Arch. Clin. Exp. Ophthalmol. 251, 139-142); (ix) retinal detachments (J. G. Arroyo, L. Yang, D. Bula & D. F. Chen (2005) Am. […]

The subject of assay [2] is doxorubicin-induced apoptosis in the liver. The assay is described as follows: Doxorubicin-induced apoptosis in rat liver (TUNEL staining, stereological disector). It is filed as in vivo.
Text: as §1

Setting [3] is: 60 mg/kg/d s.c., result in words.
Setting [4] is: vs doxorubicin + vehicle, 60 mg/kg/d s.c.

Structures are written as SMILES.

On to `O=C(O)CN1C(=O)[C@@H](NC(=O)C2(C[C@@H](CCc3ccccc3)C(=O)O)CCCC2)CCc2ccccc21` [Example (6), (2R)-2-{[1-({[(3S)-1-(carboxymethyl)-2-oxo-2,3,4,5-tetrahydro-1H-1-benzazepin-3-yl]amino}carbonyl)cyclopentyl]methyl}-4-phenylbutanoic acid], for which the “Protection against doxorubicin induced apoptosis in the retina (reduction of Nv of TUNEL positive cells vs vehicle)” value in assay [1] (setting [3]) is on record as “significant protection”. For the same molecule, the “Nv, number of TUNEL positive cells, retinal ganglion cells (RGC)” value in assay [1] (Wistar rats, 60 mg/kg/d s.c. osmotic minipump, doxorubicin 5 μg into vitreous body day 1, 5 days after, mean ± SEM) is 33.64 ± 0.96 TUNEL positive cells×10^3/mm^3. Also, the “Nv as % of doxorubicin + vehicle, RGC” value in assay [1] (Wistar rats, 60 mg/kg/d s.c. osmotic minipump, doxorubicin 5 μg into vitreous body day 1, day 5) is reported as 91.79%. Further, the “Decrease of density of apoptotic cells in the retina” value in assay [1] (setting [4]) is listed as 8.21%. The “Protection against doxorubicin induced apoptosis in the liver (reduction of Nv of TUNEL positive cells vs vehicle)” value in assay [2] (setting [3]) is listed as “significant protection”. For the same molecule, in assay [2] (Wistar rats, 60 mg/kg/d s.c. osmotic minipump, doxorubicin 5 mg/kg i.p. t.i.d. days 1-3, 5 days after first injection, mean ± SEM), the “Nv, number of TUNEL positive cells, liver” value is reported as 7.93 ± 0.25 TUNEL positive cells×10^2/mm^3. Further, the “Nv as % of doxorubicin + vehicle, liver” value in assay [2] (Wistar rats, 60 mg/kg/d s.c. osmotic minipump, doxorubicin 5 mg/kg i.p. t.i.d. days 1-3, day 5) is recorded as 76.54%. For the same molecule, in assay [2] (setting [4]), the “Decrease of density of apoptotic cells in the rat liver” value is recorded as 23.46%.

For the origin of these results see US20210046097A1, “NEUTRAL ENDOPEPTIDASE (NEP) AND HUMAN SOLUBLE ENDOPEPTIDASE (hSEP) INHIBITORS FOR PROPHYLAXIS AND TREATMENT OF EYE DISEASES” (FORTY-FOUR PHARMACEUTICALS SP. Z.O.O, priority 2018, published 2021).
